Here are results for 4 compounds from patent publication US20260335495A1, “SYNERGISTIC ACTIVITY OF NOVEL COMPOUNDS AGAINST PLANKTONIC AND BIOFILM CELLS OF CLINICALLY RELEVANT PATHOGENS” (priority 2021, published 2026).

As usually defined, the MIC is the least concentration at which growth counts as inhibited.

Where a name gives a salt, the structure may show the parent alone.

One data set concerns biofilms. The settings on record: cited from earlier work.
In the next data set the test system is S. aureus. The settings on record: cited from earlier work.
For data set [1], the system named is broad range of microbial species. The conditions noted are these: even at high concentrations; cited from earlier work.
For data set [2] the following is noted: overuse; cited from earlier work.
For data set [3] the following is noted: cited from earlier work.
Data set [4] concerns human erythrocytes and neutrophils. The settings on record: concentrations above 2%, in vitro; cited from earlier work.
Data set [5] concerns bacterial and fungal biofilms. Nature of the data set: Rapid eradication of 48-h-old biofilms within 2 h exposure. In kind it is cell-based, bacterial and fungal strains. The settings on record: at the MBEC alone, 48-h-old biofilm. As for the experimental part:
This example comprises performing biofilm growth as described above. After biofilm formation, control pegs (n=6) were removed and analyzed to determine the starting biofilm cell numbers via the drop dilution method. The 48-h old biofilms on the pegs were exposed to different concentrations of test antimicrobials, dissolved in an appropriate growth medium, for 2 hours to evaluate their efficacy alone and in combination. […] Following treatment, pegs were washed twice with sterile PBS, and the biofilm cells were dislodged into recovery medium and enumerated as described above.

Data set [6] concerns Staphylococcus aureus ON89. Nature of the data set: MIC and checkerboard (FICI), planktonic cells. The format is cell-based. As to the method:
(§1) The MIC was determined by the micro broth dilution method in 96-well plates. […] A 10 μL containing 1×10^5 bacterial cells or 2×10^3 fungal cells were added to each well. The inoculated plates were covered with a lid, sealed with Parafilm, and incubated for 24 h at 37 °C with slight rocking on a tilting platform shaker. After incubation, the optical density at 600 nm (OD 600) of the cultures in each well was measured using an xMark™ Microplate Absorbance Spectrophotometer (Bio-Rad). The MIC was defined as the lowest concentration of antimicrobial compound at which the culture OD600 values was similar to uninoculated control wells. MBCs and MFCs were determined by transferring 100 μL from each well with no apparent growth onto appropriate agar plates, followed by incubation for 24 h at 37 °C.
(§2) The concentrations of antimicrobials used were based on previously determined MIC values. […] Microtiter plates were incubated at 37 °C for 24 h, and the results were analyzed. Each test was performed in duplicate and included a growth control without the addition of any antimicrobials.

The subject of another data set is Candida albicans SK4b. The experiment in a line: MIC and checkerboard (FICI), planktonic cells. In kind it is cell-based. As to the method:
as §1, §2

The subject of a further data set is S. epidermidis SK9. Nature of the data set: MIC and checkerboard (FICI), planktonic cells. In kind it is cell-based. As for the experimental part: as §1, §2
The test system of a further data set is Proteus mirabilis ON153. The experiment in a line: MIC and checkerboard (FICI), planktonic cells. The format is cell-based. As to the method: as §1, §2
The test system of another data set is E. coli SK2. The experiment in a line: MIC and checkerboard (FICI), planktonic cells. The format is cell-based. As to the method:
as §1, §2

Data set [7] relates to Staphylococcus epidermidis ON170. The experiment in a line: MIC and checkerboard (FICI), planktonic cells. The format is cell-based. As to the method:
as §1, §2

Data set [8] deals with Pseudomonas aeruginosa SK1. Nature of the data set: MIC and checkerboard (FICI), planktonic cells. The format is cell-based. As for the experimental part:
as §1, §2

Another data set has as its system Serratia marcescens SK2. Nature of the data set: MIC and checkerboard (FICI), planktonic cells. In kind it is cell-based. As to the method:
as §1, §2

Data set [9] deals with Stenotrophomonas maltophilia ON17. The experiment in a line: MIC and checkerboard (FICI), planktonic cells. In kind it is cell-based. As to the method:
as §1, §2

The next data set deals with Escherichia coli ON29. The experiment in a line: MIC and checkerboard (FICI), planktonic cells. In kind it is cell-based. As for the experimental part: as §1, §2
The subject of the next data set is C. albicans ON47. The experiment in a line: MIC and checkerboard (FICI), planktonic cells. In kind it is cell-based. As for the experimental part:
as §1, §2

A further data set deals with MRSA ON184. The experiment in a line: MIC and checkerboard (FICI), planktonic cells. The format is cell-based, methicillin-resistant S. aureus. As to the method: as §1, §2
Data set [10] deals with preformed biofilms of test pathogens. Nature of the data set: MBEC and FBEC index, 48 h old biofilms, summary over strains. The format is cell-based, bacterial and fungal strains. The conditions noted are these: alone: 4% tetrasodium EDTA, 50% ethanol, 100 μg/mL chlorhexidine HCl, 24 hours. As for the experimental part: The evaluation of the biofilm cultivation cell composition was evaluated using an MBEC Assay® biofilm inoculator, consisting of a polystyrene lid with 96 downward-protruding pegs and a corresponding base used to grow biofilms. A standardized inoculum was diluted in an appropriate biofilm growth medium to achieve a viable cell count of 1.5×10^6 CFU/mL of bacterial cells or 5×10^5 CFU/mL of fungal cells. Then, 150 μL of this inoculum was transferred into each appropriate well, and the peg lids were inserted into the microtiter plates. The plates were sealed with Parafilm and were incubated at optimum temperature for 48 h with slight rocking for bacteria and shaking at 200 rpm for fungal strains. After incubation, the peg lid was removed from the base and rinsed twice with sterile phosphate-buffered saline (PBS) for 2 min to remove loosely attached non-sessile cells. Before the antimicrobial challenge, the pegs in column 1 (n=8) were considered as the biofilm growth control; these pegs were removed from the lids, placed into 200 μL of recovery medium, and analyzed for starting biofilm cell numbers as described below. […] After the antimicrobial challenge, the pegs were rinsed twice with sterile PBS for 2 min and placed into a new 96-well plate containing 200 μL of recovery medium. The recovery plates were sealed with Parafilm, and biofilm cells were dislodged from the pegs by sonication for 30 min with a Branson 3510 bath sonicator. The biofilm cells in the recovery medium were serially diluted, and a drop dilution assay was performed to enumerate the viable cells.
In step (4), microtiter plates are incubated at 37 °C for 24 h. then (6), after incubation, the bacterial and fungal cells were dislodged from the pegs into the recovery medium described above.
Three 10-μL aliquots, for a total of 30 μL from each well of recovery medium, were spotted on MH agar plates and incubated for 24 hours at 37 °C. […] The FBEC determination is a modification of the FICI. […]

A further data set concerns 12 test organisms. The experiment in a line: MBC/MFC and FMCI, planktonic cells, summary over strains. In kind it is cell-based, bacterial and fungal organisms. As to the method:
as §1, §2

In the case of Heparin, the “inhibition or eradication of biofilms” value in the data set on biofilms is “neither of these agents has the potential to inhibit or eradicate biofilms”. Also, in the data set on S. aureus, the “colonization of catheter surfaces” value was “promote the colonization of S. aureus on catheter surfaces”.

On to `O=C(O)CN(CCN(CC(=O)O)CC(=O)O)CC(=O)O` [disodium EDTA], for which the antimicrobial activity alone result in data set [1] was “not a potent antimicrobial agent (i.e., does not kill cells)”.

As to `[H]/N=C(\N/C(=N/[H])NCCCCCCNC(=N)NC(=N)Nc1ccc(Cl)cc1)Nc1ccc(Cl)cc1` [Chlorhexidine, 1,6-bis(4-chloro-phenylbiguanido)hexane], the “reduced susceptibility and cross-resistance” value in [2] was “reduced susceptibility from its overuse and a cross-resistance to colistin”. Moreover, the mammalian toxicity entry in data set [3] (in vivo) was “low mammalian toxicity”. In data set [3] (infants), the chemical burns result was “cause chemical burns in infants”. In addition, in data set [3] (perioperative and clinical care settings), the allergenicity entry was “significant allergen”. Further, the “effect on human erythrocytes and neutrophils” value in data set [4] is “fewer human erythrocytes and neutrophils in vitro”.

Regarding `[H]/N=C(\N/C(=N/[H])NCCCCCCNC(=N)NC(=N)Nc1ccc(Cl)cc1)Nc1ccc(Cl)cc1` [CH, chlorhexidine HCl], the biofilm eradication result in [5] is on record as “failed to eradicate the preformed biofilms”. Moreover, the MIC in [6] (Staphylococcus aureus, ON89, alone, 24 h, 37 °C, read-out: MIC) came out at 0.1 µg/mL; in the data set on Candida albicans SK4b (Candida albicans, SK4B, 24 h), 1.6 µg/mL; in the data set on S. epidermidis SK9 (Staphylococcus epidermidis, SK9, alone, 24 h, 37 °C, read-out: MIC), 0.1 µg/mL; with Proteus mirabilis ON153 (Proteus mirabilis, ON153, alone, 24 h, 37 °C, read-out: MIC), 50 µg/mL; with E. coli SK2 (Escherichia coli, SK2, 24 h), 0.4 µg/mL; in data set [7] (Staphylococcus epidermidis, ON170, alone, 24 h, 37 °C, read-out: MIC), 0.1 µg/mL. Further, the minimal inhibitory concentration (MIC) in data set [8] (Pseudomonas aeruginosa, SK1, 24 h) was 1.6 µg/mL; in the data set on Serratia marcescens SK2 (Serratia marcescens, SK2, 24 h), 12.5 µg/mL; in data set [9] (Stenotrophomonas maltophilia, ON17, 24 h), 0.8 µg/mL; in the data set on Escherichia coli ON29 (Escherichia coli, ON29, alone, 24 h, 37 °C, read-out: MIC), 0.4 µg/mL; with C. albicans ON47 (Candida albicans, ON47, 24 h), 1.6 µg/mL; in the data set on MRSA ON184 (Staphylococcus aureus, MRSA, alone, 24 h, 37 °C, read-out: MIC), 0.2 µg/mL. Besides, the MIC in combination was found to be 0.1 µg/mL in [6] (TE + CH in combination); 0.8 µg/mL in the data set with Candida albicans SK4b (TE + CH in combination); 0.025 µg/mL in the data set on S. epidermidis SK9 (TE + CH in combination); 0.8 µg/mL in the data set on Proteus mirabilis ON153 (TE + CH in combination); 0.1 µg/mL with E. coli SK2 (TE + CH in combination); 0.05 µg/mL in data set [7] (TE + CH in combination). The MIC in combination in [8] (TE + CH in combination) was 0.8 µg/mL; with Serratia marcescens SK2 (TE + CH in combination), 1.5 µg/mL; in data set [9] (TE + CH in combination), 0.2 µg/mL; in the data set with Escherichia coli ON29 (TE + CH in combination), 0.2 µg/mL; with C. albicans ON47 (TE + CH in combination), 0.8 µg/mL; with MRSA ON184 (TE + CH in combination), 0.2 µg/mL. The “eradication of all established biofilms” value in [10] was “able to eradicate all established biofilms”. In the data set on 12 test organisms, the microbicidal activity result is reported as “broad-spectrum microbicidal activity”.
